Test results published in patent US10195195B2, “Selective histamine H4 receptor antagonists for the treatment of vestibular disorders” (INSERM (Institut National de la Sante de la Recherche …, priority 2008, dated 2019).
pIC50, pKd: −log10 of the molar value. Entries after “also recorded” stand apart in the source; their conditions may differ. Where two headings read alike, the source gives them in different places.

How the values were obtained:
[1] = system: vestibular ganglion neurons; test: Patch-clamp (current-clamp) recording of depolarization-induced firing volley and membrane potential in cultured vestibular ganglion neurons; format: cell-based, Wistar rats; conditions: for pIC50: cultured rat vestibular neurons; for inhibition at 0.1 µM: 100 nM (0.1 μM); for variation of membrane potentials (qualitative): FIG. 4, high concentrations; for reversibility of the firing inhibition during rinse with control medium: perfusion of control medium after drug; for depolarization of the neurons: 5 mM
Method: Cell culture: Vestibular ganglion neurons were explanted aseptically from 2 to 6 days-old Wistar rats (Centre d'Elevage Janvier, Le Genest-Saint-Isle, France). All procedures were carried out in accordance to the French/European Communities Council Directive 86/609/EEC. The brainstem was hemi-sectioned and the eighth nerve was followed up to the level of the otocyst and cut just rostral to it.
The vestibular ganglia were excised, placed in Leibovitz medium (L15, Invitrogen, Cergy Pontoise, France), and dissociated by enzymatically (collagenase 0.75 mg/ml, dispase 1 mg/ml and dnase 0.75 mg/ml, 15 min at 25° C.). Enzymes were washed with Tyrode solution without Ca^2+ and Mg^2+, and the ganglion neurons were gently dissociated in culture medium with a pipette. The neurons were plated onto culture dishes previously coated with 5 μg/ml poly-L-ornithine, 10 μg/ml laminin and subsequently filled with 0.5 ml of a 1:1 mixture of Dulbecco's modified eagle medium and Ham's F-12 medium (Invitrogen) supplemented with 2% N2 nutrient glucose (5 g/l), glutamine (1.5 mM), sodium bicarbonate (1.1 g/l), HEPES buffer (15 mM, pH 7.4), AraC 2 μM, brain-derived neurotrophic factor 10 μg/ml and 1% penicillin/streptomycin. The low density cultures were then maintained at 37° C. in 5% CO2 for 7 to 8 days prior patch-clamp experiments.
Patch-clamp recordings: Whole-cell (current-clamp configuration) recording of responses were obtained using an Axopatch 200B amplifier (Axon Instruments; Molecular Devices Corp., Sunnyvale, Calif., USA). The extracellular solution contained (in mM): NaCl 135, HEPES 10, glucose 10, MgCl2 1, KCl 5, and CaCl2 4, pH 7.35 (with NaOH). Recording pipettes (2-3 MΩ) were drawn from microhematocrit tubes (Modulohm I/S Herlev, Denmark) and filled with the following solution (in mM): KCl 135, HEPES 10,glucose 10, NaCl5, EGTA 5, Mg-ATP3, GTP-Na 1, pH 7.35 (with KOH). The osmolarity of all solutions was set to 300 mOsm/I^−1. Experimental parameters and data acquisition were controlled with a PC computer and a Tecmar Labmaster analogue interface (Axon instruments, CA). Voltage transients were recorded from neurons presenting resting potentials lying between −45 and −65 mV. Trains of action potentials (APs) were elicited using 1 s, 200 pA depolarizing pulses applied every 6.5 s. Current signals were filtered at 10 KHz, digitized and stored using pCLAMP software (v 10.2, Axon instruments).
Drug application : The control and test solutions were applied using a multiple capillary perfusion system (flow rate 500 μl/min). After each application of the tested drug, the cells were washed with control buffer.
Data analysis and statistical methods : The results are expressed as means±S.E.M. The number of sample size (n) given is the number of neurons tested. Variations of the membrane potential and the number of APs were analysed using pCLAMP software (v10.2, Axon instruments). Drug concentration-effect relationships were fitted with a Hill equation of the form I(x)=A*xn/(IC50n+xn).

human H3 receptor = target: T1, human H3 receptor (Homo sapiens, UniProt Q9Y5N1); conditions: radioligand, transfected cell membranes; cited from earlier work
T1 construct: expressed in transfected cells; host or cells: SK-N-MC or HEK293 T
T1 sequence (Q9Y5N1 whole entry): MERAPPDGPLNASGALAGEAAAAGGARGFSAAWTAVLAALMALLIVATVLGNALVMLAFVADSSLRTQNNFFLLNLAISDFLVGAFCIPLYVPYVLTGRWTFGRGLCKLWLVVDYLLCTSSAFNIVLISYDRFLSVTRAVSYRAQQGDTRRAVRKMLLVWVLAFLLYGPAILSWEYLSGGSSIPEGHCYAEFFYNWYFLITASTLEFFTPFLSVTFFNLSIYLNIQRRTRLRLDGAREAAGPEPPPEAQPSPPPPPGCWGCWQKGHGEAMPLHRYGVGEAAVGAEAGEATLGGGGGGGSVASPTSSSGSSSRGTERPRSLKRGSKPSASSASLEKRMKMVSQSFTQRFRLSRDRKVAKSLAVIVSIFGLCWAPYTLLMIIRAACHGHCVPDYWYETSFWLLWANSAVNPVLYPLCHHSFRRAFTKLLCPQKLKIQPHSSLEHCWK

[2] = system: peripheral vestibular receptors isolated from axolotl; conditions: cited from earlier work
[3] = Neuron, dose-response fitted with Hill equation, read-out: IC50 of inhibition of the firing volley induced by standard depolarization
[4] = Rattus norvegicus, Neuron, tonic discharge

CN1CCN(C(=O)c2cc3cc(Cl)ccc3[nH]2)CC1 [JNJ 7777120, 1-[(5-chloro-1H-indol-2-yl)carbonyl]-4-methylpiperazine]
pIC50 [1, 3]: 5.00
inhibition at 0.1 µM [1, 4]: 3%
inhibition at 1 µM [1, 4]: 29%
inhibition at 10 µM [1, 4]: 41%
membrane depolarisation ([1]; high concentration application (1 mM)): did not induce membrane depolarisation

CN1CCN(C(=O)c2nc3cc(Cl)ccc3[nH]2)CC1 [VUF 6002, 1-[(5-chloro-1H-benzimidazol-2-yl)carbonyl]-4-methylpiperazine]
action potentials intrinsic properties (spike amplitude, time to peak, rise and decay time constants) [1]: not affected
membrane hyperpolarization ([1]; 100 μM): about −3 mV
inhibition of the firing ([1]; 100 μM, tonic discharge): 90%
effect on firing, phasic discharge pattern ([1]; 1 mM, neurons with phasic discharge, n=6): completely abolished the firing
variation of membrane potentials (qualitative) [1]: did not induce membrane variations
pIC50 [1, 3]: 5.24
inhibition at 0.1 µM [1, 4]: 20%
inhibition at 1 µM [1, 4]: 37%
inhibition at 10 µM [1, 4]: 55%
inhibition at 100 µM ([1]; Rattus norvegicus, Neuron, 100 μM, tonic discharge): 91%
concentration of maximum inhibition of the firing ([1]; dose-response between 1 nM and 1 mM): around 100 μM
reversibility of the firing inhibition during rinse with control medium [1]: reversed during rinse with control medium; also recorded: totally reversed

CNCCc1cnc[nH]1 [[^3H]N-a-methyl histamine]
pKd (human H3 receptor): 9.00

CNCCc1ccccn1.Cl.Cl [betahistine, betahistine dihydrochloride]
effect on membrane potential ([1]; 2 mM application): not affected
depolarization of the neurons ([1]; dihydrochloride): about 15 mV
depolarization of the neurons ([1]; listed as BH, dihydrochloride): 14.3±4.7 mV
variation of membrane potentials (qualitative) ([1]; dihydrochloride): pronounced depolarisation of the neurons
variation of membrane potentials (qualitative) ([1]; listed as betahistidine, dihydrochloride): strong depolarisations at high concentrations
pIC50 ([1]; dose-response relationship, read-out: IC50 of inhibition of the discharge volley): 2.66
reversibility of the firing inhibition during rinse with control medium ([1]; dihydrochloride): rapidly reversed during rinse with control medium
reversibility of the firing inhibition during rinse with control medium ([1]; listed as BH, dihydrochloride): rapidly abolished
concentration of maximum inhibition of the discharge volley ([1]; standard depolarization stimulation): around 10 mM
concentration of maximum effect on afferent discharge [2]: around 10 mM
pIC50 ([2]; read-out: IC50 of inhibition of the afferent discharge): 3.10

O=C(O)/C=C\C(=O)O.S=C(NC1CCCCC1)N1CCC(c2c[nH]cn2)CC1 [thioperamide, N-cyclohexyl-4-(1H-imidazol-4-yl)-1-piperidinecarbothioamide maleate]
membrane depolarisation at low concentration ([1]; 0.01 to 10 μM): without depolarizing the neurons
variation of membrane potentials (qualitative) ([1]; maleate): strong depolarisations at high concentrations; also recorded: strong membrane depolarisations; also recorded: pronounced depolarisation of the neurons
pIC50 [1, 3]: 4.00
inhibition at 0.1 µM [1, 4]: 10%
inhibition at 10 µM [1, 4]: 24%
inhibition at 500 µM ([1]; Rattus norvegicus, Neuron, 500 μM, read-out: inhibition of the firing (blocked activity)): 87%
reversibility of the firing inhibition during rinse with control medium [1]: only slightly reversible
